Where a name gives a salt, the structure may show the parent alone.
Key:
rat brain synaptosomes [1] = experiment: Conjugated Diene Formation Assay; type: biochemical; conditions: active = inhibits conjugated diene formation by 50% or more; 100 »M (or less) of drug, 100 »M hydrogen peroxide, 200 »M ferrous ammonium sulfate
Source text: The formation of conjugated dienes as assayed by Braughler, J. Neurochem., 44, 1282 (1985), Bucher, Fund. Applied Tox., 3, 222 (1983) and Tein, Arch. Biochem. Biophy., 216, 142 (1982) is a standard pharmacological laboratory procedure useful for identifying compounds which inhibit lipid peroxidation. Since lipid peroxidation is involved in the pathophysiology of central nervous system trauma, compounds which inhibit conjugated diene formation are useful in treating the conditions listed below.
44, 1282 (1985). Synaptosomal suspension (10 »l) is added to 1 ml of physiological (normal) saline containing 1 % Lubrol PX (Sigma Chemical Co. St. Louis, Mo.), 100 »M hydrogen peroxide and 100 »M (or less) of the drug to be tested prepared in either absolute ethanol or water depending upon solubility. The reaction is started by the rapid addition of 200 »M ferrous ammonium sulfate is prepared in argon-purged water. The sample is rapidly mixed and the change in absorbance at 232nm is followied in a Gilford Response Spectrophotometer equipped with a rapid sampler. Due to the rapidity of the reaction, rapid addition of the iron, rapid mixing and sampling are obligatory to the accuracy of the assay. For best results absorbance readings of one/sec should be started within 5 sec following the addition of iron. The initial linear rate of absorbance change during the first 30 sec of reaction are compared with the rate of a reaction containing all reagents except synaptosomes. The difference in rates is the rate of conjugated diene formation. Rates with drug are compared to rates obtained in the absence of drug and the % inhibition is calculated. A compound that inhibits conjugated diene formation by 50% or more is considered to be "active".

arachidonic acid = experiment: Arachidonic Acid Antagonism Assay (AAAA); type: in vivo; conditions: male CF-1 mice; for arachidonic acid antagonism: active = elevates the LD50 of sodium arachidonate outside the 95% confidence interval of the control LD50, test compound IV 15 minutes before; for % of Control LD₅₀ 100mg/kg: LD50 of sodium arachidonate, IV
Procedure: Since these metabolites contribute to the pathological problems associated with stroke, spinal trauma and head injury, compounds which antagonize arachidonic acid are useful in treating stroke, spinal trauma and head injury.
While not necessary to determine arachidonic acid antagonism, the above assay has been modified as follows: Charles River male CF-1 mice weighing 18-22g are treated IV with the test compound dissolved in 1.0% Tween-80 and 0.1% hydrochloric acid in distilled water, 0.2 ml total volume. Fifteen minutes later sodium arachidonate (90% pure) in physiological (normal) saline is injected into the tail vein. The LD₅₀ is measured using the Spearman-Karber method with a log dose interval of 0.05 (N=6). Compounds which elevate the LD₅₀ outside of the 95% confidence interval of the control LD₅₀ are considered to be "active".

rat brain synaptosomes [2] = experiment: Malonyldialdehyde (MDA) Formation Assay; type: biochemical; conditions: active = inhibits MDA formation by 50% or more at 200»M or less; 10 min at 37°, pH 7.0, 150 uM Fe+++ and 50 uM Fe++
Procedure: Since lipid peroxidation is involved in the pathophysiology of central nervous system trauma, compounds which inhibit MDA formation are useful in treating the conditions listed below.
While not necessary to determine MDA formation, the above assays have been modified as follows: rat brain synaptosomes are prepared as described in the Example about the conjugated diene assay, except that the final wash of the synaptosomes and final suspension are in physiological (normal) saline in which the pH has been adjusted to 7.0. The synaptosomes are incubated for 10 min at 37° in physiological (normal) saline pH 7.0 (total volume = 100 ul) containing; 10 ul synaptosomal suspension, 10% DMSO plus or minus drug, 150 uM Fe⁺⁺⁺ and 50 uM Fe++. The incubation is started by the rapid addition of iron to the otherwise complete reaction. The iron solutions are prepared fresh as ferric chloride and ferrous ammonium sulfate in argon-purged water. Following the 10 min incubation, the reaction is stopped by the addition of 500 ul ice-cold 12% trichloroacetic acid prepared in 0.5 N hydrochoric acid. Water (300 ul) is then added along with 100 ul of freshly prepared thiobarbituric acid (3.3% in 0.5N sodium hydroxide) and 10 ul of 5mM desferrioxamine. The sample is then heated in a boiling water bath for 20 minutes. The samples are cooled and centrifuged for 15 minutes at 1500 xg and the absorbance of the supernatant fraction is read at 532 nm. The % inhibition of MDA formation is calculated by dividing the absorbance of sample containing drug by the absorbance of samples incubated without drug. Reaction blanks are samples incubated in the absence of iron. A compound that inhibits MDA formation by 50% or more at a concentration of 200»M or less is considered "active".

ACAT = experiment: AcylCoA:Cholesterol Acyltransferase (ACAT) Inhibition Assay; type: cell-based
Source text: ACAT esterifies arterial cholesterol which is a key reaction in the development of atherosclerosis. The procedure of Bell, Can. […] In the ACAT assay it is preferred to use Fu5AH cells, see Lipids 9, 526 (1974). According to this procedure, compounds which inhibit ACAT activity equal to, or greater than, that of chlorpromazine are considered "active".

Row | SMILES | arachidonic acid antagonism (arachidonic acid) | inhibition of MDA formation (rat brain synaptosomes [2]) | further results
1 | CCN(CC)c1cc(N2CCN(CC(=O)[C@@]3(O)CC[C@H]4[C@@H]5CCC6=CC(=O)CC[C@]6(C)C5=CC[C@@]43C)CC2)nc(N)n1 [Example 4, 21-[4-[2-Amino-6-(diethylamino)-4-pyrimidinyl]-1-piperazinyl]-17α-hydroxypregna-4,9(11)-diene-3,20-dione] | demonstrate arachidonic acid antagonism | – | inhibition of conjugated diene formation (rat brain synaptosomes [1]): demonstrate such activity by inhibition of conjugated dienes
2 | C[C@]12CCC(=O)C=C1CC[C@@H]1C2=CC[C@@]2(C)[C@H]1CC[C@]2(O)C(=O)CN1CCC(O)(c2ccc(C(F)(F)F)cc2)CC1 [Example 5, 17α-Hydroxy-21-[4-hydroxy-4-(4-trifluoromethyl)phenyl-1-piperidinyl]pregna-4,9(11)-diene-3,20-dione] | – | – | inhibition of conjugated diene formation (rat brain synaptosomes [1]): demonstrate such activity by inhibition of conjugated dienes
3 | CCN(CC)c1nc(N2CCCCC2)cc(N2CCN(CC(=O)[C@@]3(O)CC[C@H]4[C@@H]5CCC6=CC(=O)CC[C@]6(C)C5=CC[C@@]43C)CC2)n1.Cl.O [Example 17] | – | demonstrate such activity by inhibition of MDA formation | % Inhibition of ACAT (5 »g/ml) (ACAT; 5 »g/ml): 32.2%; inhibiting ACAT (ACAT; active = inhibits ACAT activity equal to, or greater than, that of chlorpromazine): active in inhibiting ACAT; % of Control LD₅₀ 100mg/kg (arachidonic acid): 150%
4 | CN1CCN(c2cc(N3CCN(CC(=O)[C@@]4(O)CC[C@H]5[C@@H]6CCC7=CC(=O)CC[C@]7(C)C6=CC[C@@]54C)CC3)nc(N3CCN(C)CC3)n2)CC1.CS(=O)(=O)O.O [Example 19, 17α-Hydroxy-21-[4-[2,6-bis(4-methyl-1-piperazinyl)-4-pyrimidinyl]-1-piperazinyl]pregna-4,9(11)diene-3,20-dione methanesulfonate hydrate] | demonstrate arachidonic acid antagonism | – | % of Control LD₅₀ 100mg/kg (arachidonic acid): 141%
5 | C[C@H]1C[C@@H]2[C@H]([C@@H](O)C[C@@]3(C)[C@H]2CC[C@]3(O)C(=O)CN2CCN(c3ccccn3)CC2)[C@@]2(C)C=CC(=O)C=C12 [Example 21, 11β-17α-dihydroxy-6α-methyl-21-[4-(2-pyridinyl)-1-piperazinyl]pregna-1,4-diene-3,20-dione] | demonstrate arachidonic acid antagonism | – | –
6 | COc1cccc(N2CCN(CC(=O)[C@@]3(O)CC[C@H]4[C@@H]5CCC6=CC(=O)CC[C@]6(C)C5=CC[C@@]43C)CC2)n1.CS(=O)(=O)O [Example 22, 17α-hydroxy-21-[4-(6-methoxy-2-pyridinyl)-1-piperazinyl]pregna-4,9(11)-diene-3,20-dione monomethanesulfonate] | demonstrate arachidonic acid antagonism | – | –
7 | C[C@]12C=CC(=O)C=C1CC[C@@H]1[C@@H]2[C@@H](O)C[C@@]2(C)[C@H]1CC[C@]2(O)C(=O)CN1CCN(c2ccccn2)CC1 [Example 25, 11β,17α-dihydroxy-21-[4-(2-pyridinyl)-1-piperazinyl]-pregna-1,4-diene-3,20-dione dihydrochloride] | demonstrate arachidonic acid antagonism | – | –
8 | C[C@]12CCC(=O)C=C1CC[C@@H]1[C@@H]2[C@H](O)C[C@@]2(C)[C@H]1CC[C@]2(O)C(=O)CN1CCN(c2ccc(F)cc2)CC1 [Example 29, 21-[4-(4-fluorophenyl)-1-piperazinyl]-11α,17α-dihydroxypregn-4-ene-3,20-dione dihydrochloride] | demonstrate arachidonic acid antagonism | – | –
9 | C[C@@H]1C[C@H]2[C@@H]3CCC4=CC(=O)C=C[C@]4(C)[C@H]3[C@H](O)C[C@]2(C)[C@H]1C(=O)CN1CCN(c2cc(N3CCCC3)nc(N3CCCC3)n2)CC1 [Example 84] | – | – | inhibition of conjugated diene formation (rat brain synaptosomes [1]): demonstrate such activity by inhibition of conjugated dienes
10 | C[C@]12CCC(=O)C=C1CC[C@@H]1C2=CC[C@]2(C)[C@@H](CCN3CCN(c4cc(N5CCCC5)nc(N5CCCC5)n4)CC3)CC[C@@H]12.Cl [Example 104, 21-[4-(2,6-Bis(1-pyrrolidinyl)-4-pyrimidinyl)-1-piperazinyl]pregna-4,9(11)-dien-3-one hydrochloride] | – | demonstrate such activity by inhibition of MDA formation | –
11 | C[C@]12CC[C@H]3[C@@H](CCC4=CC(=O)CC[C@@]43C)[C@@H]1CC[C@@H]2CCN1CCN(c2cc(N3CCCC3)nc(N3CCCC3)n2)CC1.Cl [Example 107] | – | demonstrate such activity by inhibition of MDA formation | –
12 | C[C@@]12C(=CC(=O)C[C@@H]1C#N)CC[C@@H]1C2=CC[C@]2(C)[C@@H](CCN3CCN(c4cc(N5CCCC5)nc(N5CCCC5)n4)CC3)CC[C@@H]12.Cl.Cl.Cl.O [Example 110] | – | demonstrate such activity by inhibition of MDA formation | –
13 | C[C@]12C=CC(=O)C=C1CC[C@@H]1C2=CC[C@]2(C)[C@@H](C(=O)CN3CCN(c4cc(N5CCCC5)nc(N5CCCC5)n4)CC3)CC[C@@H]12.Cl.Cl [Example 111] | – | – | inhibition of conjugated diene formation (rat brain synaptosomes [1]): demonstrate such activity by inhibition of conjugated dienes
14 | CC(CN1CCN(c2cc(N3CCCC3)nc(N3CCCC3)n2)CC1)[C@H]1CC[C@H]2[C@@H]3CCC4=CC(=O)C=C[C@]4(C)[C@H]3CC[C@]12C.CS(=O)(=O)O.O (stereo partly drawn) [Example 112] | – | – | inhibition of conjugated diene formation (rat brain synaptosomes [1]): demonstrate such activity by inhibition of conjugated dienes
15 | C[C@H]1C[C@H]2[C@@H]3C[C@H](F)C4=CC(=O)CC[C@]4(C)C3=CC[C@]2(C)[C@@]1(O)C(=O)CN1CCN(c2cc(N3CCCC3)nc(N3CCCC3)n2)CC1.Cl.Cl [Example 118] | – | demonstrate such activity by inhibition of MDA formation | –
16 | C[C@@H]1C[C@H]2[C@@H]3CCC4=CC(=O)C=C[C@]4(C)[C@H]3CC[C@]2(C)[C@H]1C(=O)CN1CCN(c2cc(N3CCCC3)nc(N3CCCC3)n2)CC1.Cl.Cl [Example 121] | – | demonstrate such activity by inhibition of MDA formation | –
17 | COc1ccc2c(c1)CC[C@@H]1[C@@H]2CC[C@@]2(C)[C@H]1CC[C@]2(O)C(=O)CN1CCN(c2cc(N3CCCC3)nc(N3CCCC3)n2)CC1 [Example 125] | – | demonstrate such activity by inhibition of MDA formation | –
18 | CCNc1cccnc1N1CCN(CC(=O)[C@H]2[C@H](C)C[C@H]3[C@@H]4CCC5=CC(=O)C=C[C@]5(C)C4=CC[C@@]32C)CC1.Cl [Example 127, 21-[4-[3-(Ethylamino)-2-pyridinyl]piperazinyl]-16α-methylpregna-1,4,9(11)-triene-3,20-dione hydrochloride] | – | demonstrate such activity by inhibition of MDA formation | –
19 | C[C@]12CC[C@@H]3c4ccc(O)cc4CC[C@H]3[C@@H]1CC[C@]2(O)C(=O)CN1CCN(c2cc(N3CCCC3)nc(N3CCCC3)n2)CC1 [Example 129, 3,17α-Dihydroxy-21-[4-[2,6-bis(1-pyrrolidinyl)-4-pyrimidinyl]-1-piperazinyl]-19-norpregna-1,3,5-(10)-trien-20-one (E)-2-butenedioate 1:1 salt] | – | demonstrate such activity by inhibition of MDA formation | –

Reference: patent publication EP0263213B1, “C20 Through C26 amino steroids” (THE UPJOHN COMPANY, priority 1986, dated 1988)
